From PubChem BioAssay (NCI) come the findings set out here.

What all share (assay): DTP human tumour cell line panel, 48 h
Experiment [1] concerns OVCAR-8 ovarian.
Experiment [2] deals with OVCAR-4 ovarian.
The test system of experiment [3] is HL-60(TB) leukemia.
The test system of experiment [4] is SW-620 colon.
Experiment [5] has as its system U251 CNS.
In experiment [6] the test system is HOP-92 NSCLC.
Experiment [7] has as its system HCC-2998 colon.
For experiment [8], the system named is OVCAR-5 ovarian.

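Briefly, cells in 96-well plates were exposed to five compound concentrations for 48 h, and endpoints were estimated by linear interpolation. Here, GI50 denotes the concentration required for 50% inhibition of growth. The concentration for full growth arrest is given as TGI.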

For `CC1=C(C(=O)Nc2ccc(Cl)c(Cl)c2)C(c2cccc(Cl)c2)NC(=S)N1` (centres undefined), the GI50 in experiment [1] is 12.4 µM; in experiment [2], 13.4 µM; in experiment [3], 16.5 µM; in experiment [4] it was 15.6 µM; in experiment [5] it was 10.7 µM; in experiment [6], 14.2 µM. Moreover, the TGI is 31.7 µM in experiment [1]; 42.5 µM in experiment [2]; 45.5 µM in experiment [3]; 36.1 µM in experiment [4]; 29.6 µM in experiment [5]; above 50 µM in experiment [6].

`C(=N\Nc1ccc2ccccc2n1)/c1ccccn1`: the GI50 in experiment [1] was 0.463 µM; in experiment [7], 0.307 µM; in experiment [2], 0.363 µM; in experiment [3], 0.279 µM; in experiment [4], 0.644 µM; in experiment [8], 0.596 µM. The results for the GI50 in experiment [5] and in experiment [6] were 0.413 µM and 0.816 µM, respectively. In addition, the TGI was above 100 µM in experiment [1]; 1.14 µM in experiment [7]; above 100 µM in experiment [2]; 2.3 µM in experiment [3]; above 43.3 µM in experiment [4]; above 100 µM in experiment [8]. For the same compound, the TGI in experiment [5] is above 55 µM; in experiment [6], 32.8 µM.

With `CC(=O)c1c(C)c2cnc(Nc3ccc(N4CCNCC4)cn3)nc2n(C2CCCC2)c1=O`, the GI50 in experiment [1] is 12.9 µM; in experiment [7], 10.6 µM; in experiment [2], 11.2 µM; in experiment [3] it was 0.638 µM; in experiment [4], 0.332 µM; in experiment [8] it was 8.59 µM. Also, the GI50 in experiment [5] is 4.25 µM; in experiment [6] it was 0.803 µM. For the same compound, the TGI in experiment [1] turned out to be 28.7 µM; in experiment [7] it was 23.9 µM; in experiment [2], 23.8 µM; in experiment [3] it was 24.8 µM; in experiment [4], 19.1 µM; in experiment [8], 22.3 µM. Besides, the TGI in experiment [5] is 20.3 µM; in experiment [6], 22.8 µM.

As to `O=C(CI)Nc1ccc(Br)cc1`, the GI50 was 2.46 µM in experiment [1]; 13.4 µM in experiment [7]; 2.92 µM in experiment [2]; 2.14 µM in experiment [8]; 1.83 µM in experiment [5]. Further, the TGI in experiment [1] was 5.95 µM; in experiment [7] it was 27.3 µM; in experiment [2] it was 7.25 µM; in experiment [8] it was 4.81 µM; in experiment [5], 3.87 µM.

As to `COc1ccc2c(c1)/C(=N/OC(C)=O)c1c-2c(OC)nc2ccccc12`, the GI50 in experiment [1] is above 100 µM; in experiment [7] it was above 100 µM; in experiment [2], 58.3 µM; in experiment [3], above 100 µM; in experiment [4], above 100 µM; in experiment [8], above 100 µM. The GI50 in experiment [5] was above 100 µM; in experiment [6] it was 22.5 µM. In addition, the TGI in experiment [1], in experiment [7], in experiment [2], in experiment [3], in experiment [4] and in experiment [8] was above 100 µM each time. Besides, the TGI in experiment [5] was above 100 µM; in experiment [6], 82.3 µM.

For the compound `COc1ccc(C(O)c2ccccn2)cc1` (centres undefined), the TGI in experiment [1], in experiment [2], in experiment [4], in experiment [8], in experiment [5] and in experiment [6] was above 100 µM each time.

`COc1cnccc1Nc1nc(-c2nn(Cc3c(F)cc(OCCO)cc3F)c3ccccc23)ncc1OC`: the GI50 in experiment [1] is 2.03 µM; in experiment [7] it was 10 µM; in experiment [2] it was 1.74 µM; in experiment [3], 1.42 µM; in experiment [4] it was 1.99 µM; in experiment [8], 5.13 µM. For the same compound, the GI50 in experiment [5] is 1.59 µM; in experiment [6], 0.634 µM. Moreover, the TGI was 5.82 µM in experiment [1]; above 100 µM in experiment [7]; 3.68 µM in experiment [2]; above 100 µM in experiment [3]; 7.4 µM in experiment [4]; 24.5 µM in experiment [8]. For the same compound, the TGI in experiment [5] is 3.76 µM; in experiment [6], above 100 µM.

As to `O=C1C(Cl)=C(NCCCN(CCCNC2=C(Cl)C(=O)c3ccccc3C2=O)C2=C(Cl)C(=O)c3ccccc3C2=O)C(=O)c2ccccc21`, the GI50 in experiment [1] was 3 µM; in experiment [7] it was 2.45 µM; in experiment [2], 1.49 µM; in experiment [4], 2.21 µM; in experiment [8] it was 4.85 µM; in experiment [5], 2.66 µM. Moreover, in experiment [6], the GI50 was 2.23 µM. Besides, the TGI in experiment [1] turned out to be 10.5 µM; in experiment [7], 6.37 µM; in experiment [2], 2.85 µM; in experiment [4], 4.9 µM; in experiment [8], 17.2 µM; in experiment [5], 6.27 µM. In addition, the TGI in experiment [6] was determined as 14 µM.

Turning to `Oc1[nH]c2ccccc2c1C=Nc1ccc(-n2cncn2)cc1`, the GI50 in experiment [1] is 13.9 µM; in experiment [7], above 25 µM; in experiment [2], above 18.9 µM; in experiment [3] it was 12.9 µM; in experiment [4] it was above 25 µM; in experiment [8], above 25 µM. Further, the GI50 in experiment [5] is above 21.6 µM. In addition, the TGI in experiment [1], in experiment [7], in experiment [2], in experiment [3], in experiment [4] and in experiment [8] was above 25 µM each time. Also, the TGI in experiment [5] was above 25 µM.

For `N#CC1=C(N)OC2=C(CCOc3c2ccc2ccccc32)C1c1ccc(Br)cc1` (centres undefined), the GI50 in experiment [1] was 77.5 µM; in experiment [7], 22.1 µM; in experiment [2] it was 27.1 µM; in experiment [3], 17 µM; in experiment [4], above 100 µM; in experiment [8] it was 96.3 µM. Moreover, the GI50 in experiment [6] was 14.1 µM. For the same compound, the TGI is above 100 µM in experiment [1]; 56.9 µM in experiment [7]; above 100 µM in experiment [2]; 37.6 µM in experiment [3]; above 100 µM in experiment [4]; above 100 µM in experiment [8]. In addition, the TGI in experiment [6] was 47.4 µM.
